Assays:
[1] = Br. J. Clin. Pharmac., 1993, 36, 125-127; cited from earlier work
[2] = Specific study in healthy subjects: renal handling of creatinine; format: in vivo
[3] = ANDROMEDA (EFC4966) clinical trial in patients with a recent severe episode of Congestive Heart failure; format: in vivo; conditions: 400 mg BID
Experimental: Despite the equal distribution of treatment with ACE inhibitors/AII receptor antagonists at baseline, concomitant treatment with these drugs became unbalanced during the course of the ANDROMEDA study, as more patients in the dronedarone 400 mg BID group discontinued these treatments and fewer started them (table 2).
In the dronedarone 400 mg BID group, 14 of 41 patients who discontinued ACE/AII experienced “blood creatinine increased” or “renal impairment” adverse events, versus none among the 18 patients taking placebo in this category. This observation supports the hypothesis that an increase in serum creatinine observed in patients taking dronedarone may have led investigators to discontinue ACE/AII treatment (table 4).

[4] = Clinical trials with dronedarone: serum creatinine levels; format: in vivo
Experimental: The instant invention therefore relates to a method of managing the risk of an increased morbidity and mortality rate in patients treated by an association of dronedarone or one of its pharmaceutically acceptable salts and of at least a compound B selected from ACE inhibitors, angiotensin II receptor antagonists and potassium sparing diuretics. Said method is performed by performing the following steps: • a) initially measuring serum creatinine levels, such as within one week after initiation of treatment with dronedarone, which provides a reference level, • b) monitoring serum creatinine levels at regular intervals during treatment of the patient by the compound B (as recommended in the labelling of compound B), • c) if the serum creatinine levels increases above the reference level, clinical judgement should be made to determine if the increase is due to dronedarone, to compound B or to another cause, • d) to help clinical judgment and evaluate if the increase is due to dronedarone, dronedarone can be temporarily interrupted.
Concerning step a) of the methods of the invention, as mentioned before, in most patients with atrial fibrillation or atrial flutter the maximal increase in creatinine levels, compared to the level before administration of dronedarone, was smaller than 30%, with a mean increase ranging from 10 to 15% or more. Then during the treatment with dronedarone, mean creatinine levels remain stable, this corresponds to a plateau.

For `CCCCc1oc2ccccc2c1C(=O)c1cc(I)c(OCCN(CC)CC)c(I)c1` [amiodarone], the “tubular secretion of creatinine” value [1] is listed as “decrease in the tubular secretion of creatinine”.
In the case of `CN/C(=N/CCSCc1nc[nH]c1C)NC#N` [cimetidine], the “tubular secretion of creatinine” value [1] is listed as “decrease in the tubular secretion of creatinine”.
With `CCCCc1oc2ccc(NS(C)(=O)=O)cc2c1C(=O)c1ccc(OCCCN(CCCC)CCCC)cc1` [dronedarone, 2-n-butyl-3-[4-(3-di-n-butylaminopropoxy)benzoyl]-5-methylsulfonamido-benzofuran] the “effect on creatinine secretion at the tubular level” value [2] was “inhibition of creatinine secretion at the tubular level”, the “effect on glomerular filtration” value [2] was “no effect” and the “effect on renal blood flow” value [2] was “no effect”. For the same compound, the “patients who died among those who never interrupted ACE inhibitors/AII receptor antagonists” value [3] was 4%, the “patients who discontinued ACE/AII and experienced blood creatinine increased or renal impairment adverse events” value ([3]; of 41 patients who discontinued ACE/AII) was 14 patients and the “change in serum creatinine levels of the patient” value ([4]; administration of dronedarone in clinical trials) was “slight increase”. For the same compound, the “return of creatinine levels to baseline after treatment discontinuation” value ([4]; after treatment discontinuation) was “within three days”, the “time of occurrence of creatinine increase after treatment initiation” value ([4]; after treatment initiation) was “within two days” and the “return of creatinine to baseline after temporary interruption of dronedarone” value ([4]; demonstrated in another clinical trial) was no more than 5 days. The “creatinine levels during treatment” value ([4]; during treatment) was “remained stable” and the “maximal increase in creatinine levels compared to the level before administration” value ([4]; most patients with atrial fibrillation or atrial flutter) was “smaller than 30%”.
For `COc1cc(Cc2cnc(N)nc2N)cc(OC)c1OC` [trimethoprim], the “tubular secretion of creatinine” value [1] is listed as “decrease in the tubular secretion of creatinine”.
